Here are results for 2 molecules from patent US20120022129A1, “Targeting of Histone Deacetylase 2, Protein Kinase CK2, and Nuclear Factor NRF2 For Treatment of Inflammatory Diseases” (priority 2008, published 2012).

Common to all, as to format: cell-based, human
Assay [1] concerns HDAC2. Put plainly: Co-immunoprecipitation of flag-tagged HDAC2 with binding partners in H292 cells. To be noted: H292, flag-tagged WT HDAC2. On the procedure:
FIG. 16: HDAC2 serine phosphorylation is associated with increased interaction with catalytic subunits of protein kinase CK2 in response to CSE. A) Bronchial epithelial H292 cells transfected with either a control vector (control V) or flag-tagged WT HDAC2 were treated with 2.5% CSE for 0.5 h. […] C) Bronchial epithelial H292 cells transfected with flag-tagged WT HDAC2 were treated with either 2.5% CSE for 0.5 h, 25 or 50 μM Acrolein for 1 h and 200 μM H202 for 0.5 and 2 h respectively.
(§1) A) H292 cells cultured on 8-well chamber slides were treated with 2.5% CSE for 0.5 h or 50 μM Acrolein for 1 h, washed and fixed with 4% PFA. Slides were incubated with HDAC2 and α-tubulin antibodies overnight at […]. Slides were mounted with antifade mounting solution and images analysed by an Olympus inverted microscope. B) H292 cells were transfected with plasmid vector (Ctrl V) or flag-tagged WT HDAC2 (1-488) for 24 h with lipofectamine 2000. Cells were treated with 2.5% CSE for 0.5 h and flag proteins immunoprecipitated using M2 anti-flag antibodies overnight at 4° C. HDAC1 and C) p53 interaction were determined by western blot. D) H292 cells were transfected with plasmid vector (Ctrl V), flag-tagged WT HDAC2 (1-488) or S^394/^411/^422/^424A and 1-400 amino acid HDAC2 mutants for 24 h with lipofectamine 2000. Cells were then exposed to 2.5% CSE for 0.5 h. Levels of HDAC2 interaction with HDAC1 were determined by western blotting using specific antibodies. E) H292 cells were transfected with flag-tagged WT HDAC2 (1-488) for 24 h with lipofectamine 2000. […] Levels of phospho-serine and HDAC2 interaction with SAP30, RbAp46/48, MBD3 and p65 were determined by western blotting using specific antibodies respectively. […] Levels of HDAC1 and p65 binding to immunoprecipitated flag-tagged HDAC2 was determined by western blotting. […] Deacetylase activity of immunoprecipitated HDAC2 was determined using a specific HDAC2 deacetylase activity kit. Data expressed as mean±SEM (n=3). *** P<0.001 significant compared to control treatments.

Assay [2] relates to HDAC2. The assay is described as follows: Serine phosphorylation of immunoprecipitated HDAC2 in H292 cells. As to the method: FIG. 6: CSE induced CK2-dependent HDAC2 phosphorylation in bronchial epithelial and small airway epithelial cells. [A (i)] H292 cells were treated with CSE (2.5%) for 0.5, 1, 2 and 4 h. Immunoprecipitated HDAC2 was analyzed for phosphorylation of serine residues using specific phospho-serine antibodies by SDS polyacrylamide gel. CSE induced significant cyclical phosphorylation of HDAC2 on serine residues at 0.5, 1 and 4 h. [A (ii)] Relative density of phosphor-serine expression normalized to immunoprecipitated HDAC2. [B (i)] […] Immunoprecipitated HDAC2 from whole cell lysates was probed for phosphorylation of serine residues, CSE induced a dose-dependent increase in HDAC2 serine phosphorylation. [B (ii)] Relative density of phospho-serine expression normalized to immunoprecipitated HDAC2. (C) H292 cells were treated with or without specific CK2 inhibitor, TBB. for 1 h, cells were washed with sterile 1×PBS and then treated with freshly prepared CSE (2.5%) for 0.5 h, Immunoprecipitated HDAC2 was assayed for phosphorylation on serine residues. […] (D) Relative density of phosphor-serine expression normalized to immunoprecipitated HDAC2.
FIG. 14: Loss of Serine Sites S^394, S^422, S^424 Abrogates Cigarette Smoke Extract (CSE)-Induced Phosphatase-Independent HDAC2 Phosphorylation. A) Bronchial epithelial H292 cells were transfected with plasmid vector or flag-tagged WT HDAC2 (1-488) for 24 h using lipofectamine 2000 and then treated with or without 2.5% CSE for 0.5 h or B) 50 μM. acrolein for 1 h. Flag-tagged proteins were immunoprecipitated overnight and serine phosphorylation detected by western blots using phospho-serine antibodies. C) Flag-tagged WT HDAC2 was immunoprecipitated from whole cell lysates of H292 cells treated with 2.5% CSE for 0.5 h. Immunoprecipates were then washed and treated with 400 U of λ-phosphatase or buffer alone for 1 h at 30° C. Phosphorylation of serine sites were detected by western blots using anti-serine antibodies. D) H292 cells were transfected with plasmid vector, flag-tagged WT HDAC2 (1-488) or S394A, S394/411/422/424A and 1-400 aa HDAC2 mutants for 24 h with lipofectamine 2000. Cells were then treated with 2.5% CSE for 0.5 h. Serine phosphorylation of immunoprecipitated flag proteins was determined by western blot. E) Phosphatase activity was determined using non-radioactive assay system (Promega). H292 cells were treated with or without 2.5% CSE for 0.5, 2 and 6 h with serine/threonine […] (okadaic acid) used as a positive control. 5 μg protein was incubated with PP2A specific-peptide substrate RRA(pT)VA and reaction buffer for 15 minutes in a 96-well plate. Molybdate dye/additive mixture was added to stop the reaction and color allowed to develop for 15 minutes. Optical density of samples was determined using a microplate reader with a 630 nm filter.
FIG. 18: Protein Kinase CK2 Inhibitors Blocks CSE-Induced HDAC2 Phosphorylation. A) Bronchial epithelial H292 cells transfected with a flag-tagged WT HDAC2 plasmid were treated with 2.5% CSE for 0.5 h. […] B) Relative density of phospho-serine expression normalized to immunoprecipitated HDAC2. Data expressed as mean±SEM (n=3). *** P<0.001, ### P<0.001 significant compared to control treatments.
Cell lysate controls were used.

Assay [3] relates to HDAC2. Put plainly: Deacetylase activity of immunoprecipitated HDAC2 from H292 cells. To be noted: NAC 2 mM 2 h, then CSE 2.5% 0.5 h. On the procedure:
as §1, with “Cells were then exposed to 2.5% CSE for 0.5 h.” left out, “antibodies.” for “antibodies. E) H292 cells were transfected with flag-tagged WT HDAC2 (1-488) for 24 h with lipofectamine 2000.”

Assay [4] has as its system HDAC2. The assay is described as follows: HDAC2 cellular localization in H292 cells (immunofluorescence). To be noted: acrolein 50 μM, 1 h. As to the method:
as §1, with “Cells were then exposed to 2.5% CSE for 0.5 h.” left out, “antibodies.” for “antibodies. E) H292 cells were transfected with flag-tagged WT HDAC2 (1-488) for 24 h with lipofectamine 2000.”

With `CC(=O)N[C@@H](CS)C(=O)O` [NAC, N-acetyl cysteine], the “HDAC2 interaction with co-repressor proteins (SAP30, MBD3) and p65” value with HDAC2 [1] (NAC 2 mM 2 h, then CSE 2.5% 0.5 h) was “blocked HDAC2 interaction with co-repressor proteins”. Further, the “CSE-induced HDAC2 phosphorylation” value in the assay on HDAC2 [2] (H292, flag-tagged WT HDAC2, NAC 2 mM 2 h, then CSE 2.5% 0.5 h) was “Inhibiting CSE-induced HDAC 2 phosphorylation”. For the same molecule, in the assay on HDAC2 [3], the “CSE-induced decrease in HDAC2 deacetylase activity” value is “rescued”.
For the molecule `C=CC=O` [acrolein], the “HDAC2 CK2α′ binding” value with HDAC2 [1] (acrolein 25 and 50 μM, 1 h) was “increased HDAC2 CK2α′ binding”. For the same molecule, the “serine phosphorylation of flag-tagged full length HDAC2” value in the assay with HDAC2 [2] (H292, acrolein 50 μM, 1 h) is recorded as “significantly phosphorylated on serine residues”. Moreover, the HDAC2 cellular localization result in the assay on HDAC2 [4] is given as “remained localized to the nucleus”.
